As a reminder, the inhibition is the change of the read-out against control, counted positive when it falls. For orientation: IC50 means the point on the concentration scale where inhibition reaches its midpoint.

Our source for the inhibition, Activity and IC50 values is ChEMBL document CHEMBL1151870, “Synthetic studies in butenonyl C-glycosides: Preparation of polyfunctional alkanonyl glycosides and their enzyme inhibitory activity” (Bioorg Med Chem Lett, 2009).

Assay [1] has as its target Lysosomal alpha-glucosidase (Rattus norvegicus) (UniProt Q6P7A9). Kind of assay: Inhibition of rat intestinal alpha-glucosidase at 100 uM.
In assay [2] the target is T1, Glucose-6-phosphatase catalytic subunit 1 (Rattus norvegicus) (UniProt P43428).
T1 sequence (whole entry): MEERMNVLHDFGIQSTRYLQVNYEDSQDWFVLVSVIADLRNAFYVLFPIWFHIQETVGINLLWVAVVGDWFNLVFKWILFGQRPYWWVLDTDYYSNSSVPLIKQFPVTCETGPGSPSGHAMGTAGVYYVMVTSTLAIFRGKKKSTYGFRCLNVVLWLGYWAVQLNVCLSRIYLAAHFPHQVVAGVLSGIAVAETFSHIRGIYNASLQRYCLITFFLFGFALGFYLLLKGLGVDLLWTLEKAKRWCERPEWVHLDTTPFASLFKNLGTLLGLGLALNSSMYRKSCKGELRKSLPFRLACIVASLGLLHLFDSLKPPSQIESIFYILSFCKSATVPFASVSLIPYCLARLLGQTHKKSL
Nature of the assay: Inhibition of rat liver glucose-6-phosphatase at 100 uM.

Assay [3] concerns Rattus norvegicus. Kind of assay: Antihyperglycemic activity against sucrose-challenged fasted Wistar rat assessed as reduction in blood glucose at 100 mg/kg, po administered 30 mins before sucrose challenge measured after 30 mins post sucrose dose relative to control. The assay is classed as functional. Further details: scale not given: the % may be the effect or the level left.

Assay [4] addresses T2, Glycogen phosphorylase, liver form (Rattus norvegicus) (UniProt P09811).
T2 sequence (whole entry): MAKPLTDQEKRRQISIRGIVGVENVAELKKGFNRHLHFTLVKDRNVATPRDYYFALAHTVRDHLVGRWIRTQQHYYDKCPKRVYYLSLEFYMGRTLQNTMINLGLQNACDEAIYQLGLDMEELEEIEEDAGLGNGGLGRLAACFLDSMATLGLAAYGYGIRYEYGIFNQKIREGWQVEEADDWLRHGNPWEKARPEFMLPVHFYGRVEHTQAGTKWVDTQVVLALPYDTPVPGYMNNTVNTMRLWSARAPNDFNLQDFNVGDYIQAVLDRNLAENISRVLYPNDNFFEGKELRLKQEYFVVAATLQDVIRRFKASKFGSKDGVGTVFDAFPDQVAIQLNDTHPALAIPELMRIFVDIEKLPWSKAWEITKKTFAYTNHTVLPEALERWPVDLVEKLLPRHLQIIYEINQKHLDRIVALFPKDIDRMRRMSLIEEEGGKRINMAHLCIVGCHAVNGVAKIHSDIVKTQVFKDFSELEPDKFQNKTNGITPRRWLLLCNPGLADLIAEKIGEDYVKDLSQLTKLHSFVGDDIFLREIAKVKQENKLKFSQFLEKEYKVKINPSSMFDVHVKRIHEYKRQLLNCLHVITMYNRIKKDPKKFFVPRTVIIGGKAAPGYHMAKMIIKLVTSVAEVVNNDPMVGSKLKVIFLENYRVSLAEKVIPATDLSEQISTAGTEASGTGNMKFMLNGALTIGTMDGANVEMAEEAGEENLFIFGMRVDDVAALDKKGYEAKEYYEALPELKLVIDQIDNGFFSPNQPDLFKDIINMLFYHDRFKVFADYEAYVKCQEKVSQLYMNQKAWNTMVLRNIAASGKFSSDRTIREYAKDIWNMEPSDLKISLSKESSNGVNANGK
Kind of assay: Inhibition of rat liver glycogen […] at 100 uM.

Assay [5] relates to Rattus norvegicus. Kind of assay: Antihyperglycemic activity against sucrose-challenged streptozotocin-induced fasted Sprague-Dawley rat assessed as reduction in hyperglycemia at 100 mg/kg, po administered 30 mins before sucrose challenge measured after 5 hrs post sucrose dose relative to control. The assay is classed as functional. Further details: scale not given: the % may be the effect or the level left.

The test system of assay [6] is Rattus norvegicus. Kind of assay: Antihyperglycemic activity against sucrose-challenged streptozotocin-induced fasted Sprague-Dawley rat assessed as reduction in hyperglycemia at 100 mg/kg, po administered 30 mins before sucrose challenge measured after 24 hrs post sucrose dose relative to control. The assay is classed as functional. The arrangement: scale not given: the % may be the effect or the level left.

Assay [7] concerns the target T3, Glucose-6-phosphatase catalytic subunit 1 (Rattus norvegicus, UniProt P43428).
T3 sequence (P43428 whole entry): T1 sequence (whole entry)
Kind of assay: Inhibition of rat liver glucose-6-phosphatase.

Assay [8] concerns the target T4, Glycogen phosphorylase, liver form (Rattus norvegicus, UniProt P09811).
T4 sequence (P09811 whole entry): T2 sequence (whole entry)
Nature of the assay: Inhibition of rat liver glycogen […].

Sequence of Lysosomal alpha-glucosidase (Rattus norvegicus) (Q6P7A9 whole entry): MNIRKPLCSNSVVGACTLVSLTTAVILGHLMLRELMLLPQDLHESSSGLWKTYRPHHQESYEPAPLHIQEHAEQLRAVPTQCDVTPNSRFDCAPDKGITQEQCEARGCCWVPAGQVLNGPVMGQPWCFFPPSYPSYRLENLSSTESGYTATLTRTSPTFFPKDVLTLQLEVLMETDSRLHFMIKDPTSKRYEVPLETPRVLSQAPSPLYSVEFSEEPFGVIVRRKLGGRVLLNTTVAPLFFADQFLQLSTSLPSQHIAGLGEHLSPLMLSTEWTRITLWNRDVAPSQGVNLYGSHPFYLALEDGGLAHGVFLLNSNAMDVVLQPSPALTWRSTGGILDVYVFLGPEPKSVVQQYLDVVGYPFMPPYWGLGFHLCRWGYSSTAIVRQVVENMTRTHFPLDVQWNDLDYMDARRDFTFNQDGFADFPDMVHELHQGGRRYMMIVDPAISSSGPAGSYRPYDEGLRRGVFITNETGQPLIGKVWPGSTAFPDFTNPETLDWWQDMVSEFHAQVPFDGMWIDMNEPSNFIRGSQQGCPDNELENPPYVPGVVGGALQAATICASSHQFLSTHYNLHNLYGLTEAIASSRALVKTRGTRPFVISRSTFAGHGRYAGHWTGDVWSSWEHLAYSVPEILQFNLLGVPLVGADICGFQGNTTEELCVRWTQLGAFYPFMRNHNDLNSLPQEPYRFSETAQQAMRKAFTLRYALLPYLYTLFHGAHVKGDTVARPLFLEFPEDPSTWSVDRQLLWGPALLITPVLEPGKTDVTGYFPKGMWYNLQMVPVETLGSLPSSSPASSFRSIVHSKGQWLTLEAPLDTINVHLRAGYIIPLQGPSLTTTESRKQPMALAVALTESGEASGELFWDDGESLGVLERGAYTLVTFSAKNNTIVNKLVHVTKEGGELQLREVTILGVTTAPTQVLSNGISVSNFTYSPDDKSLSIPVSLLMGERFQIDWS

Take `O=C(/C=C/c1ccc(Cl)cc1)C[C@@H]1OC[C@@H](O)[C@H](O)[C@H]1O`: the inhibition in assay [1] was -8.3%; in assay [2], 4.7%.
Turning to `O=C(/C=C/c1ccccc1)C[C@@H]1O[C@H](CO)[C@@H](O)[C@H](O)[C@H]1O`, the results for the Activity in the assay on Rattus norvegicus [3], in the assay with Rattus norvegicus [5] and in the assay on Rattus norvegicus [6] were 19.5%, 2.91% and 12.1%, respectively. For the same compound, in assay [4], the inhibition amounted to 7.3%. In assay [7], this compound came in with an IC50 of 87 µM.
As to `CCOC(=O)C(C(=O)OCC)C(CC(=O)C[C@@H]1O[C@H](CO)[C@@H](O)[C@H](O)[C@H]1O)c1ccc(OC)c(OC)c1` (mixture of isomers), the inhibition in assay [1] is -2.3%; in assay [2], 36.2%; in assay [4] it was 24%.
For the compound `O=C(/C=C/c1ccc(O)cc1)C[C@@H]1O[C@H](CO)[C@@H](O)[C@H](O)[C@H]1O`, the inhibition was 4.2% in assay [2] and -3.4% in assay [4].
On to `COc1ccc(/C=C/C(=O)C[C@@H]2O[C@H](CO)[C@@H](O)[C@H](O)[C@H]2O)cc1`, for which the inhibition in assay [2] was -9.7%.
Take `COc1ccc(/C=C/C(=O)C[C@@H]2O[C@H](CO)[C@@H](O)[C@H](O)[C@H]2O)cc1OC`: the Activity is recorded as 26.7% with Rattus norvegicus [3], 14.1% in the assay with Rattus norvegicus [5] and 13.4% in the assay on Rattus norvegicus [6]. Besides, the results for the inhibition in assay [2] and in assay [4] were 15% and -5.9%, respectively.
`O=C(/C=C/c1ccc2ccccc2c1)C[C@@H]1O[C@H](CO)[C@@H](O)[C@H](O)[C@H]1O`: the values for the Activity in the assay on Rattus norvegicus [3], in the assay with Rattus norvegicus [5] and with Rattus norvegicus [6] were 25%, 14.2% and 10.3%, respectively. Besides, the inhibition in assay [2] was -7.7%. Moreover, the IC50 in assay [8] came to 98 µM.
Consider `CCOC(=O)C(C(=O)OCC)C(CC(=O)C[C@@H]1O[C@H](CO)[C@@H](O)[C@H](O)[C@H]1O)c1ccc2ccccc2c1` (mixture of isomers), for which the inhibition is 4.6% in assay [2] and 14.7% in assay [4].
`CCOC(=O)C(C(=O)OCC)C(CC(=O)C[C@@H]1O[C@H](CO)[C@@H](O)[C@H](O)[C@H]1O)c1ccccc1` (mixture of isomers): the inhibition in assay [2] was -3.3%.
Still for that read-out and setting: then `O=C(/C=C/c1cccnc1)C[C@@H]1O[C@H](CO)[C@@H](O)[C@H](O)[C@H]1O`, with -8.1%.
Consider `CCOC(=O)C(C(=O)OCC)C(CC(=O)C[C@@H]1O[C@H](CO)[C@@H](O)[C@H](O)[C@H]1O)c1cccnc1` (mixture of isomers), for which the inhibition in assay [2] amounted to 37.6%.
Still for that read-out and setting: next, `COc1cc(/C=C/C(=O)C[C@@H]2O[C@H](CO)[C@@H](O)[C@H](O)[C@H]2O)cc(OC)c1OC`: 4.7%.
As for `CCOC(=O)C(C(=O)OCC)C(CC(=O)C[C@@H]1O[C@H](CO)[C@@H](O)[C@H](O)[C@H]1O)c1ccc(Cl)cc1` (mixture of isomers), the inhibition in assay [1] is -10%; in assay [2] it was -6%; in assay [4] it was -5.4%.
For `O=C(/C=C/c1ccc(Cl)cc1)C[C@@H]1O[C@H](CO)[C@@H](O)[C@H](O)[C@H]1O`, in assay [1], the inhibition is -5.97%.
`CN(C)C(=N)NC(=N)N` [METFORMIN]: the results for the Activity in the assay with Rattus norvegicus [3], in the assay on Rattus norvegicus [5] and with Rattus norvegicus [6] were 31.2%, 26.9% and 21.4%, respectively.
For the compound `O=C(/C=C/c1ccc2ccccc2c1)C[C@@H]1O[C@H](CO)[C@@H](O[C@@H]2O[C@H](CO)[C@@H](O)[C@H](O)[C@H]2O)[C@H](O)[C@H]1O`, the values for the inhibition in assay [2] and in assay [4] were -3.9% and -8.3%, respectively.
`O=C(/C=C/c1cccc([N+](=O)[O-])c1)C[C@@H]1O[C@H](CO)[C@@H](O)[C@H](O)[C@H]1O`: the inhibition in assay [1] was -10%; in assay [2] it was 8%; in assay [4] it was 15.6%.
